Reference: PMC10002828, “FRET assay for live-cell high-throughput screening of the cardiac SERCA pump yields multiple classes of small-molecule allosteric modulators” (Research Square, 2023)
Structures can show the parent of a compound that is named as a salt. Where two headings read alike, the source gives them in different places. Each block holds one compound with its values, some of them ahead of it.

What was measured:
SERCA [1] = settings: cited from earlier work
[2] = molecular target: T1, human two-color SERCA2a (2CS) biosensor (Homo sapiens, UniProt P16615); experiment: FLT/FRET concentration-response of two-color SERCA2a (2CS) biosensor in live HEK293 cells; format: cell-based
T1 construct: expressed in transfected cells
T1 sequence (P16615 1-997 isoform P16615-2): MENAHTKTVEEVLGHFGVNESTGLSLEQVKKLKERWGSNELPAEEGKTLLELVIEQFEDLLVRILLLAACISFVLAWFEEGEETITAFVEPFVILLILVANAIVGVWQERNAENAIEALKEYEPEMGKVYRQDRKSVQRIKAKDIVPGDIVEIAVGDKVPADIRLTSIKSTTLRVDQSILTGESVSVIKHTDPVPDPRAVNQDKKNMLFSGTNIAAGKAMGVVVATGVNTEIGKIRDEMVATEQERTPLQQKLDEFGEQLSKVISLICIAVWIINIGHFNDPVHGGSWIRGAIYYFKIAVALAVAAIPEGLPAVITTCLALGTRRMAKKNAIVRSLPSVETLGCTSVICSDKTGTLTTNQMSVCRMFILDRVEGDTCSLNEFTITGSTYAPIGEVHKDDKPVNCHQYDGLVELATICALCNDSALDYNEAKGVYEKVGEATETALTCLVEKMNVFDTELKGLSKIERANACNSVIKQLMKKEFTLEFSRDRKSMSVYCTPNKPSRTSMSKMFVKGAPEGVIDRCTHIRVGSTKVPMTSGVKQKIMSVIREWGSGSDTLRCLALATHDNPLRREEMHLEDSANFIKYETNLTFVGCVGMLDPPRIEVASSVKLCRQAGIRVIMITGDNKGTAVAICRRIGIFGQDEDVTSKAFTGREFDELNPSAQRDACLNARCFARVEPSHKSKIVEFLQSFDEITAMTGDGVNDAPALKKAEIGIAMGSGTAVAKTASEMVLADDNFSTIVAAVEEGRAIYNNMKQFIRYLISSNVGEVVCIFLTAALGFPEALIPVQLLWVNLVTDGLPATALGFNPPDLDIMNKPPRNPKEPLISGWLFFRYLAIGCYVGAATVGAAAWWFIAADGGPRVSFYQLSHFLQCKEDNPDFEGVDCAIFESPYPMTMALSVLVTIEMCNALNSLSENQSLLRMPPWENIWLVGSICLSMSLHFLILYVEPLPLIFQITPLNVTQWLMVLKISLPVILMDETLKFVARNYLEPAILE
Procedure: FRET CRC assay plates (0.78–100 μM compound range) with at least ten different compound concentrations were made by adding the appropriate volume of compound or DMSO into black 384 well plates (Greiner Bio-One) using a Mosquito HV (SPTLabTech, United Kingdom). Subsequent ATPase and Ca^2+-transport CRC assay plates (0–50 μM compound range) with repurchased compounds were made in a similar manner using with the Echo 550 (Beckman Coulter) using either 384 well transparent plates (Greiner Bio-One) or black-walled plates with transparent bottoms (Greiner Bio-One), respectively.
On each day of screening, cells were harvested, washed three times with PBS, and centrifuged at 300g for 5min. Cells were filtered using a 70μm cell strainer and diluted to 1–2 × 10^6 cells/mL. Cell concentration and viability were assessed using the Cell countess (Invitrogen) and trypan blue assay. During assays, cells were constantly and gently stirred using a magnetic stir bar at room temperature, keeping the cells in suspension and evenly distributed to avoid clumping. Cells were dispensed at 5μL or 50μL per well into assay plates (dispensed into 40 assay plates, each containing 1536 wells) pre-plated with either compound or DMSO using a Multdrop Combi liquid dispenser (Thermo Fisher Scientific, Pittsburg, PA) and sealed until needed. […] The FRET HTS screen was performed over two days with a custom HTS fluorescence lifetime plate reader (FLT-PR) and spectral plate reader (SUPR) provided by Photonic Pharma LLC (Minneapolis, MN)[18]. […]
A detailed description of the high-throughput fluorescence lifetime plate reader (FLT-PR) and spectral unmixing plate reader (SUPR), manufactured by Fluorescence Innovations Inc and provided by Photonic Pharma, LLC was described previously[18],[21]. Briefly, for lifetime measurement with the FLT-PR, the observed donor-fluorescence waveform, F (t) was fit by a convolution of the measured instrument response function (IRF) and a single-exponential decay to obtain the lifetime (τ) of the donor fluorophore[57] in the absence (τD) and presence (τDA) of the acceptor as described in Eq. (1): 1 F(t)=Ae^(−t/τ) FRET efficiency (E) was determined as the fractional decrease of donor FLT in the absence and in the presence of acceptor as in Eq. (2): 2 E=1−τDA/τD E was determined in the presence and absence of compound and normalized relative to E of the DMSO control. For spectral detection with the SUPR, the observed fluorescence emission spectrum F(λ) was fit by least-squares minimization of a linear combination of component spectra for donor (D), acceptor (A), cellular autofluorescence (C) and water Raman (W) as described previously. […]

SERCA2a [3] = molecular target: T2, SERCA2a (Sus scrofa, UniProt P11607); experiment: NADH-linked enzyme-coupled Ca2+-ATPase assay in pig cardiac SR vesicles; format: biochemical; settings: for functional category (Ca2+-ATPase and Ca2+-transport, VMAX and VMID): based on both Ca2+-ATPase and Ca2+-transport assays; for Ca2+-ATPase increase at VMID (ΔVMID): midpoint Ca2+; for Ca2+-ATPase increase at VMAX (ΔVMAX): saturating Ca2+
T2 construct: SERCA2a in native SR preparations; from tissue; host or cells: porcine left ventricular tissue (cardiac SR vesicles)
T2 sequence (P11607 1-997 isoform P11607-2): as the sequence (P16615 1-997 isoform P16615-2) above, with R371K, N403K, S538P, L570M, H576N, D667E, A713S, S865T, I889V, V963L counted along it
Procedure: (§1) Cardiac SR vesicles were isolated from fresh porcine left ventricular tissue using differential centrifugation of the homogenized tissue as previously described. The SR vesicles were flash-frozen and stored at −80°C until needed.
Functional assays were performed using porcine cardiac SR vesicles. An enzyme-coupled, NADH-linked ATPase assay was used to measure SERCA ATPase activity in 384-well microplates. Each well contained 50 mM MOPS (pH 7.0), 100 mM KCl, 1 mM EGTA, 0.2 mM NADH, 1 mM phosphoenol pyruvate, 10 IU/mL of pyruvate kinase, 10 IU/mL of lactate dehydrogenase, 7 μM of the calcium ionophore A23187 (Sigma), and CaCl2 was added to set free [Ca^2+] to three different concentrations. The Ca^2+-ATPase were measured at VMAX (saturating, pCa 5.4), VM!D (subsaturating, midpoint, pCa 6.2), and basal (non-activating, pCa 8.0) [Ca^2+]. 10 μg/mL of SR vesicle, calcium, compound (0.048 to 50 μM), and assay mix were incubated for 20 min at room temperature before measurement of functional assays with each of the 18 hit compounds, because a shorter incubation time than the FRET live-cell assays achieved optimal responses. The assay was started upon the addition of MgATP at a final concentration of 5 mM (total volume to 80 μL), and absorbance was read in a SpectraMax Plus microplate spectrophotometer from Molecular Devices (Sunnyvale, CA) at 340nm.
(§2) SERCA2a ATPase (or Ca-transport) activity at pCa 8.0 was subtracted from pCa 5.4 and pCa 6.2 values. The % effect ATPase (or Ca-transport transport) activity was normalized to the DMSO only (or 2CS in the absence of compound), and then were plotted against [Ca], and the curves were fitted using the Hill function, where V is the initial ATPase rate (or fluorescence rate), VMAX is the ATPase (or Ca^2+-transport) at saturating [Ca^2+], and EC50 or pKCa, or VM!D is the apparent Ca^2+ dissociation constant as described previously ATPase (or Ca^2+-transport) at (Midpoint Ca^2+)[44].

SERCA2a [4] = molecular target: T2, SERCA2a; experiment: Fluo-4 oxalate-supported Ca2+-transport assay in pig cardiac SR vesicles; format: biochemical; settings: for coupling ratio (CR), VMAX (Ca2+-transport) / VMAX (Ca2+-ATPase): at VMAX, control 0.66; for Ca2+-transport increase at VMID (Δ): midpoint Ca2+; for Ca2+-transport increase at VMID (Δ) / C10, Ca2+-transport at VMID: pCa 6.2; for Ca2+-transport change at VMAX (Δ, increase positive): saturating Ca2+
Procedure: as §1
Ca^2+-transport assays were performed with similar porcine SR samples as in the Ca^2+-ATPase assays described above. The compound effect on the Ca^2+-transport activity of SERCA2a was determined using an oxalate-supported assay in which the change in fluorescence in a Ca-sensitive dye, Fluor-4, was determined as previously described. A buffered solution containing 50 mM MOPS (pH 7.0), 100 mM KCl, 30 mg/mL sucrose, 1 mM EGTA, 10 mM potassium oxalate, 2 μM Fluo-4, 30 μg/mL porcine cardiac SR vesicles, CaCl2 calculated to reach the free [Ca^2+] (pCa 8.0, 6.2, and 5.4), and compound (0.048 to 50μM) was dispensed into 384-well black walled, transparent bottomed plates (Greiner Bio-One) containing the tested small molecule and incubated at 22°C for 20 minutes while covered and protected from light. To start the reaction, MgATP was added to a final concentration of 5 mM, and the decrease in 485-nm excited fluorescence of Fluo-4 was monitored at 520 nm for 15 min using a FLIPR Tetra (Molecular Devices, San Jose, CA).
as §2

[5] = parameters: method as in PMID 21878191; settings: human usage; cited from earlier work
SERCA [6] = system: SERCA; parameters: method as in PMID 32397211; settings: assay not named; read-out: EC50 (affinity); cited from earlier work
[7] = 2CS biosensor, live HEK293 cells, CRC 0.78–100 μM compound, read-out: FRET EC50

SMILES: Cc1ccc2cccc(NC(=O)c3ccc(OC(C)C)cc3)c2n1 [CDN1163]
effect on SERCA (SERCA [1]): stimulates Ca^2+ transport

SMILES: CCCCN(CC)c1nc(C)nc2c1c(C)cn2-c1c(C)cc(C)cc1C [CP-154526]
effect on SERCA (SERCA [1]): increases the apparent Ca^2+ affinity of SERC2a

EC50 ([2]; 2CS biosensor, normalized FRET E, read-out: FRET half maximal effect (EC50), Figure 6 legend): 7.1 ± 0.2 µM
Ca2+-ATPase increase at VMID (ΔVMID) (SERCA2a [3]; pCa 6.2): 30%
C10 (compound concentration that changes function by 10%), Ca2+-ATPase at VMAX (SERCA2a [3]; pCa 5.4): 9.7 µM
EC50 (SERCA2a [3]; pCa 5.4, read-out: EC50, Ca2+-ATPase at VMAX): 11 µM
C10, Ca2+-ATPase at VMID (SERCA2a [3]; pCa 6.2): 8.7 µM
EC50 (SERCA2a [3]; pCa 6.2, read-out: EC50, Ca2+-ATPase at VMID): 11 µM
coupling ratio (CR), VMAX (Ca2+-transport) / VMAX (Ca2+-ATPase) (SERCA2a [4]): 0.48
Ca2+-transport increase at VMID (Δ) (SERCA2a [4]): 17%
C10, Ca2+-transport at VMAX (SERCA2a [4]; pCa 5.4): 15 µM
Ca2+-transport inhibition at VMAX (SERCA2a [4]; pCa 5.4): 21%
C10, Ca2+-transport at VMID (SERCA2a [4]): 4 µM
SMILES: O=C(c1ccc(-c2ccc(O)cc2)nc1)N1CCC(CCc2ccccc2)CC1 [Compound 6]
functional category (Ca2+-ATPase and Ca2+-transport, VMAX and VMID) (SERCA2a [3]): activates Ca^2+-ATPase with divergent effects on Ca^2+-transport

EC50 [2, 7]: 0.3 µM
Ca2+-ATPase increase at VMID (ΔVMID) (SERCA2a [3]; pCa 6.2): 7%
C10 (compound concentration that changes function by 10%), Ca2+-ATPase at VMAX (SERCA2a [3]; pCa 5.4): 25 µM
C10, Ca2+-ATPase at VMID (SERCA2a [3]; pCa 6.2): 25 µM
Ca2+-ATPase increase at VMAX (ΔVMAX) (SERCA2a [3]; pCa 5.4): 14%
coupling ratio (CR), VMAX (Ca2+-transport) / VMAX (Ca2+-ATPase) (SERCA2a [4]): 0.74
Ca2+-transport increase at VMID (Δ) (SERCA2a [4]): 19%
C10, Ca2+-transport at VMAX (SERCA2a [4]; pCa 5.4): 14 µM
C10, Ca2+-transport at VMID (SERCA2a [4]): 21 µM
Ca2+-transport change at VMAX (Δ, increase positive) (SERCA2a [4]; pCa 5.4): 24%
SMILES: CCn1nc(C)c(CN2CCCC(Nc3ccc(C(C)C)cc3)C2)c1C (stereo not drawn) [Compound 7]
functional category (Ca2+-ATPase and Ca2+-transport, VMAX and VMID) (SERCA2a [3]): activates both Ca^2+-ATPase and Ca^2+-transport

EC50 [2, 7]: 4.9 µM
Ca2+-ATPase increase at VMID (ΔVMID) (SERCA2a [3]; pCa 6.2): 31%
C10, Ca2+-ATPase at VMAX (SERCA2a [3]; pCa 5.4): 4.3 µM
C10, Ca2+-ATPase at VMID (SERCA2a [3]; pCa 6.2): 7.8 µM
Ca2+-ATPase increase at VMAX (ΔVMAX) (SERCA2a [3]; pCa 5.4): 49%
coupling ratio (CR), VMAX (Ca2+-transport) / VMAX (Ca2+-ATPase) (SERCA2a [4]): 0.4
Ca2+-transport increase at VMID (Δ) (SERCA2a [4]): 7%
C10, Ca2+-transport at VMAX (SERCA2a [4]; pCa 5.4): 25 µM
Ca2+-transport change at VMAX (Δ, increase positive) (SERCA2a [4]; pCa 5.4): 10%
SMILES: COc1ccc(C(=O)C2CCCN(Cc3nc(-c4ccc(F)cc4)cs3)C2)c(OC)c1 (stereo not drawn) [Compound 8]
functional category (Ca2+-ATPase and Ca2+-transport, VMAX and VMID) (SERCA2a [3]): activates both Ca^2+-ATPase and Ca^2+-transport

EC50 ([2]; assay not given, probably FRET EC50 of Table 1, read-out: EC50 (affinity), compared with thapsigargin): 3.8 µM
Ca2+-ATPase inhibition at VMAX (SERCA2a [3]; pCa 5.4): 93%
Ca2+-ATPase inhibition at VMID (SERCA2a [3]; pCa 6.2): 90%
Ca2+-transport inhibition (SERCA2a [4]): completely inhibited
SMILES: OCC1(Cc2ccccc2F)CCCN(Cc2cc3c(cc2Cl)OCO3)C1 (stereo not drawn) [Compound 12]

SMILES: O=C(c1cc(O)c(O)c([N+](=O)[O-])c1)c1ccccc1F [Ro 41–0960]
effect on SERCA (SERCA [1]): increases SERCA maximal activity in high Ca^2+

SMILES: C[C@]12CCC(=NOCCN)C[C@@H]1C(=O)C[C@@H]1[C@@H]2CC[C@]2(C)C(=O)CC[C@@H]12 [istaroxime, (E,Z)-3-((2-aminoethoxy)imino) androstane-6,17-dione hydrochloride)]
effect on SERCA (SERCA [1]): stimulates SERCA activity
clearance rate [5]: high clearance rate
gastrointestinal absorption [5]: poor gastrointestinal absorption
metabolic transformation [5]: extensive metabolic transformation

SMILES: C/C=C(/C)C(=O)O[C@H]1C(C)=C2[C@H]([C@@H]1OC(=O)CCCCCCC)[C@@](C)(OC(C)=O)C[C@H](OC(=O)CCC)[C@@]1(O)[C@H]2OC(=O)[C@@]1(C)O [thapsigargin]
EC50 (SERCA [6]): ~0.0075 µM
